Measurements as given in PubChem BioAssay (NCI).
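Protocol summary: plate cells (96-well), add compound at 5 concentrations, incubate 48 h, interpolate endpoints linearly. GI50: concentration for 50% inhibition of growth. TGI marks complete inhibition of growth.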

Assays:
Assay in all cases: NCI anticancer screen, dose series, 48 h
786-0 renal = tested on: 786-0 renal
A498 renal = tested on: A498 renal
A549 NSCLC = tested on: A549 NSCLC
ACHN renal = tested on: ACHN renal
BT-549 breast = tested on: BT-549 breast
CAKI-1 renal = tested on: CAKI-1 renal
CCRF-CEM leukemia = tested on: CCRF-CEM leukemia
COLO 205 colon = tested on: COLO 205 colon
DU-145 prostate = tested on: DU-145 prostate
EKVX NSCLC = tested on: EKVX NSCLC
HCC-2998 colon = tested on: HCC-2998 colon
HCT-116 colon = tested on: HCT-116 colon
HCT-15 colon = tested on: HCT-15 colon
HL-60(TB) leukemia = tested on: HL-60(TB) leukemia
HOP-62 NSCLC = tested on: HOP-62 NSCLC
HOP-92 NSCLC = tested on: HOP-92 NSCLC
HS 578T breast = tested on: HS 578T breast
HT29 colon = tested on: HT29 colon
IGROV1 ovarian = tested on: IGROV1 ovarian
K-562 leukemia = tested on: K-562 leukemia
KM12 colon = tested on: KM12 colon
LOX IMVI melanoma = tested on: LOX IMVI melanoma
M14 melanoma = tested on: M14 melanoma
MALME-3M melanoma = tested on: MALME-3M melanoma
MCF7 breast = tested on: MCF7 breast
MDA-MB-231 breast = tested on: MDA-MB-231 breast
MDA-MB-435 = tested on: MDA-MB-435
MOLT-4 leukemia = tested on: MOLT-4 leukemia
NCI-H226 lung = tested on: NCI-H226 lung
NCI-H23 lung = tested on: NCI-H23 lung
NCI-H460 lung = tested on: NCI-H460 lung
NCI-H522 lung = tested on: NCI-H522 lung
NCI/ADR-RES ovarian = tested on: NCI/ADR-RES ovarian
OVCAR-3 ovarian = tested on: OVCAR-3 ovarian
OVCAR-4 ovarian = tested on: OVCAR-4 ovarian
OVCAR-5 ovarian = tested on: OVCAR-5 ovarian
OVCAR-8 ovarian = tested on: OVCAR-8 ovarian
PC-3 prostate = tested on: PC-3 prostate
RPMI-8226 leukemia = tested on: RPMI-8226 leukemia
RXF 393 renal = tested on: RXF 393 renal
SF-268 CNS = tested on: SF-268 CNS
SF-295 CNS = tested on: SF-295 CNS
SF-539 CNS = tested on: SF-539 CNS
SK-MEL-2 melanoma = tested on: SK-MEL-2 melanoma
SK-MEL-28 melanoma = tested on: SK-MEL-28 melanoma
SK-MEL-5 melanoma = tested on: SK-MEL-5 melanoma
SK-OV-3 ovarian = tested on: SK-OV-3 ovarian
SN12C renal = tested on: SN12C renal
SNB-19 CNS = tested on: SNB-19 CNS
SNB-75 CNS = tested on: SNB-75 CNS
SW-620 colon = tested on: SW-620 colon
T-47D breast = tested on: T-47D breast
TK-10 renal = tested on: TK-10 renal
U251 CNS = tested on: U251 CNS
UACC-257 melanoma = tested on: UACC-257 melanoma
UACC-62 melanoma = tested on: UACC-62 melanoma
UO-31 renal = tested on: UO-31 renal
SR leukemia = tested on: SR leukemia

CCCCC(CCCCCC(CCCC)C1NC(C)Cc2cc(OC)c(OC)cc21)C1NC(C)Cc2cc(OC)c(OC)cc21 (centres undefined) showed a GI50 (786-0 renal) of 1690 nM, a TGI (786-0 renal) of 3150 nM and a GI50 (A498 renal) of 1410 nM. For the same molecule, the TGI (A498 renal) was 2730 nM, the GI50 (A549 NSCLC) was 1570 nM and the TGI (A549 NSCLC) was 3020 nM. The GI50 (ACHN renal) was 1760 nM, the TGI (ACHN renal) was 3210 nM and the GI50 (BT-549 breast) was 1790 nM. The TGI (BT-549 breast) was 3260 nM, the GI50 (CAKI-1 renal) was 1720 nM and the TGI (CAKI-1 renal) was 3710 nM. It also gave a GI50 (CCRF-CEM leukemia) of 2150 nM, a TGI (CCRF-CEM leukemia) of 4660 nM and a GI50 (COLO 205 colon) of 294 nM. For the same molecule, the TGI (COLO 205 colon) was 842 nM, the GI50 (DU-145 prostate) was 1800 nM and the TGI (DU-145 prostate) was 3230 nM. It also gave a GI50 (EKVX NSCLC) of 1710 nM, a TGI (EKVX NSCLC) of 3610 nM and a GI50 (HCC-2998 colon) of 250 nM. It also gave a TGI (HCC-2998 colon) of 742 nM, a GI50 (HCT-116 colon) of 1490 nM and a TGI (HCT-116 colon) of 2960 nM. For the same molecule, the GI50 (HCT-15 colon) was 1310 nM, the TGI (HCT-15 colon) was 2760 nM and the GI50 (HL-60(TB) leukemia) was 1840 nM. For the same molecule, the TGI (HL-60(TB) leukemia) was 3790 nM, the GI50 (HOP-62 NSCLC) was 1470 nM and the TGI (HOP-62 NSCLC) was 2880 nM. It also gave a GI50 (HOP-92 NSCLC) of 1060 nM, a TGI (HOP-92 NSCLC) of 2580 nM and a GI50 (HS 578T breast) of 1430 nM. It also gave a TGI (HS 578T breast) of 3600 nM, a GI50 (HT29 colon) of 340 nM and a TGI (HT29 colon) of 1190 nM. It also gave a GI50 (IGROV1 ovarian) of 1940 nM, a TGI (IGROV1 ovarian) of 4260 nM and a GI50 (K-562 leukemia) of 328 nM. The TGI (K-562 leukemia) was 1180 nM, the GI50 (KM12 colon) was 1570 nM and the TGI (KM12 colon) was 3060 nM. For the same molecule, the GI50 (LOX IMVI melanoma) was 1320 nM, the TGI (LOX IMVI melanoma) was 2680 nM and the GI50 (M14 melanoma) was 1790 nM. For the same molecule, the TGI (M14 melanoma) was 3390 nM, the GI50 (MALME-3M melanoma) was 1900 nM and the TGI (MALME-3M melanoma) was 3940 nM. It also gave a GI50 (MCF7 breast) of 1190 nM, a TGI (MCF7 breast) of 2520 nM and a GI50 (MDA-MB-231 breast) of 1280 nM. The TGI (MDA-MB-231 breast) was 2600 nM, the GI50 (MDA-MB-435) was 1760 nM and the TGI (MDA-MB-435) was 4190 nM. It also gave a GI50 (MOLT-4 leukemia) of 1960 nM, a TGI (MOLT-4 leukemia) of 4220 nM and a GI50 (NCI-H226 lung) of 1530 nM. It also gave a TGI (NCI-H226 lung) of 3010 nM, a GI50 (NCI-H23 lung) of 1670 nM and a TGI (NCI-H23 lung) of 3200 nM. It also gave a GI50 (NCI-H460 lung) of 1450 nM, a TGI (NCI-H460 lung) of 2970 nM and a GI50 (NCI-H522 lung) of 1700 nM. For the same molecule, the TGI (NCI-H522 lung) was 3250 nM, the GI50 (NCI/ADR-RES ovarian) was 1610 nM and the TGI (NCI/ADR-RES ovarian) was 3070 nM. For the same molecule, the GI50 (OVCAR-3 ovarian) was 1830 nM, the TGI (OVCAR-3 ovarian) was 3270 nM and the GI50 (OVCAR-4 ovarian) was 1450 nM. It also gave a TGI (OVCAR-4 ovarian) of 2760 nM, a GI50 (OVCAR-5 ovarian) of 1820 nM and a TGI (OVCAR-5 ovarian) of 3250 nM. It also gave a GI50 (OVCAR-8 ovarian) of 1730 nM, a TGI (OVCAR-8 ovarian) of 3290 nM and a GI50 (PC-3 prostate) of 1770 nM. For the same molecule, the TGI (PC-3 prostate) was 3510 nM, the GI50 (RPMI-8226 leukemia) was 1990 nM and the TGI (RPMI-8226 leukemia) was 4430 nM. It also gave a GI50 (RXF 393 renal) of 1200 nM, a TGI (RXF 393 renal) of 2480 nM and a GI50 (SF-268 CNS) of 1640 nM. For the same molecule, the TGI (SF-268 CNS) was 3080 nM, the GI50 (SF-295 CNS) was 1830 nM and the TGI (SF-295 CNS) was 3790 nM. It also gave a GI50 (SF-539 CNS) of 1760 nM, a TGI (SF-539 CNS) of 3210 nM and a GI50 (SK-MEL-2 melanoma) of 2250 nM. It also gave a TGI (SK-MEL-2 melanoma) of 3880 nM, a GI50 (SK-MEL-28 melanoma) of 1600 nM and a TGI (SK-MEL-28 melanoma) of 2950 nM. For the same molecule, the GI50 (SK-MEL-5 melanoma) was 1520 nM, the TGI (SK-MEL-5 melanoma) was 2850 nM and the GI50 (SK-OV-3 ovarian) was 1570 nM. It also gave a TGI (SK-OV-3 ovarian) of 2910 nM, a GI50 (SN12C renal) of 1630 nM and a TGI (SN12C renal) of 3040 nM. The GI50 (SNB-19 CNS) was 1700 nM, the TGI (SNB-19 CNS) was 3150 nM and the GI50 (SNB-75 CNS) was 1280 nM. For the same molecule, the TGI (SNB-75 CNS) was 2570 nM, the GI50 (SW-620 colon) was 819 nM and the TGI (SW-620 colon) was 2200 nM. For the same molecule, the GI50 (T-47D breast) was 1600 nM, the TGI (T-47D breast) was 3110 nM and the GI50 (TK-10 renal) was 1750 nM. The TGI (TK-10 renal) was 3220 nM, the GI50 (U251 CNS) was 1290 nM and the TGI (U251 CNS) was 2630 nM. It also gave a GI50 (UACC-257 melanoma) of 1710 nM, a TGI (UACC-257 melanoma) of 3220 nM and a GI50 (UACC-62 melanoma) of 1670 nM. The TGI (UACC-62 melanoma) was 3050 nM, the GI50 (UO-31 renal) was 1670 nM and the TGI (UO-31 renal) was 3730 nM.

In the case of Cc1ncc([N+](=O)[O-])n1CCn1ccnc1[N+](=O)[O-], the TGI (786-0 renal) is reported as greater than 100000 nM, the TGI (A498 renal) is reported as greater than 100000 nM and the TGI (A549 NSCLC) is reported as greater than 100000 nM. For the same molecule, the TGI (ACHN renal) was greater than 100000 nM, the TGI (CCRF-CEM leukemia) was greater than 100000 nM and the TGI (EKVX NSCLC) was greater than 100000 nM. It also gave a TGI (HCC-2998 colon) greater than 100000 nM, a TGI (HCT-116 colon) greater than 100000 nM and a TGI (HCT-15 colon) greater than 100000 nM. The TGI (HL-60(TB) leukemia) was greater than 100000 nM, the TGI (HOP-62 NSCLC) was greater than 100000 nM and the TGI (HS 578T breast) was greater than 100000 nM. For the same molecule, the TGI (HT29 colon) was greater than 100000 nM, the TGI (K-562 leukemia) was greater than 100000 nM and the TGI (KM12 colon) was greater than 100000 nM. The TGI (MALME-3M melanoma) was greater than 100000 nM, the TGI (MCF7 breast) was greater than 100000 nM and the TGI (MOLT-4 leukemia) was greater than 100000 nM. It also gave a TGI (NCI-H226 lung) greater than 100000 nM, a TGI (NCI-H23 lung) greater than 100000 nM and a TGI (NCI-H460 lung) greater than 100000 nM. It also gave a TGI (NCI-H522 lung) greater than 100000 nM, a TGI (OVCAR-3 ovarian) greater than 100000 nM and a TGI (OVCAR-5 ovarian) greater than 100000 nM. It also gave a TGI (OVCAR-8 ovarian) greater than 100000 nM, a TGI (PC-3 prostate) greater than 100000 nM and a TGI (RPMI-8226 leukemia) greater than 100000 nM. The TGI (SF-268 CNS) was greater than 100000 nM, the TGI (SF-295 CNS) was greater than 100000 nM and the TGI (SF-539 CNS) was greater than 100000 nM. For the same molecule, the TGI (SK-MEL-2 melanoma) was greater than 100000 nM, the TGI (SK-MEL-28 melanoma) was greater than 100000 nM and the TGI (SK-MEL-5 melanoma) was greater than 100000 nM. For the same molecule, the TGI (SN12C renal) was greater than 100000 nM, the TGI (SNB-75 CNS) was greater than 100000 nM and the TGI (SR leukemia) was greater than 100000 nM. It also gave a TGI (SW-620 colon) greater than 100000 nM, a TGI (TK-10 renal) of 29000 nM and a TGI (U251 CNS) greater than 100000 nM. For the same molecule, the TGI (UACC-257 melanoma) was greater than 100000 nM.
